Results as given in US6534676B2, “Method to treat chronic heart failure and/or elevated cholesterol levels using 3,5-diiodothyropropionic acid and method to prepare same” (The Arizona Board of Regents on Behalf of the University of …, priority 2001, dated 2003).

Tests used:
[1] = tested on: nuclear T3 receptors of the c-erbA proto-oncogene family; details: background statement; cited from earlier work
[2] = Heart failure patients: right heart catheterization hemodynamics; format: in vivo, human
Experimental: All patients were hospitalized before initiating treatment and a right heart catheterization, radionuclide ejection fraction and echocardiogram were performed. Serum samples were drawn for measurement of thyrotropin, total T4, free T4, and reverse T3.
(§1) DITPA cross-reacted with antibodies for detection of T3, which consequently was not measured. Renal and hepatic function tests also were performed. Patients were randomly assigned in double-blind fashion to receive either DITPA at a dosage of 1.875 mg/kg daily or placebo in two or three divided doses. For the first four days of drug administration patients were monitored on a telemetry unit. Thereafter, weekly electrocardiograms were performed and patients were examined for changes in thyroid or cardiac status or evidence of drug toxicity.
(§2) At the end of two weeks an echocardiogram was obtained. If there was no clinical evidence of progression of heart failure or development of an arrhythmia the dose of DITPA was increased to 3.75 mg/kg daily. After an additional two weeks of treatment with the higher dosage of the drug patients were readmitted to the hospital and the tests performed in the initial evaluation were repeated.
Right heart catheterization was performed after the patient had been fasted overnight; no premedication was given. Pulmonary artery, pulmonary capillary wedge and right heart pressures were measured with a 7 Fr Swan-Ganz catheter introduced into the right femoral vein. Blood pressures were recorded with an automated arm cuff system. After an initial stabilization period of 20 to 30 minutes, the resting hemodynamic measurements were obtained. Thermodilution cardiac output measurements were averaged from five recordings after discarding the highest and lowest values. All blood tests were performed in the Clinical Pathology Laboratory at the Southern Arizona Veterans Administration Health Care System.

[3] = Dose-ranging study of DITPA in normal volunteers: thyroid hormone measurements; format: in vivo, human; details: for Thyrotropin: baseline 3.53 ± 1.00; for Thyrotropin / Free T4 / Total T4 / rT3: mean ± SEM; for Free T4: baseline 1.04 ± .04; for Total T4: baseline 8.73 ± .85; for rT3: baseline 23.23 ± 1.71
Experimental: A dose-ranging study was performed with seven (7) normal volunteers. Study participants comprised men between the ages of 18 and 65 years of age. Before participating in the study, a complete physical examination, electrocardiogram, and echocardiogram were obtained. […] On day 1, these normal volunteers were started on 1.875 mg/kg in two divided doses per day. This treatment regimen was continued for two weeks. At the end of the second week, the initial laboratory studies were repeated. The dose was then doubled to 3.75 mg/kg and the volunteers were treated for two additional weeks. At the end of this time physical examination and all laboratory variables again were measured. Volunteer data were analyzed using Student's paired t-test. Baseline data in DITPA and placebo groups were compared by Student's unpaired t-test. Comparison of placebo and drug treated groups was made by repeated measures ANOVA (SPSS Version 9.5, SPSS Chicago, 11). If P values for drug-time interactions were significant a priori contrasts were performed of the drug-time interaction for two weeks versus baseline. When data were available only at baseline and four week, comparisons were made by difference scores. Baseline values for each participant were subtracted from values after four weeks of treatment and the differences between DITPA and placebo treatments then were compared. […] Table II summarizes thyroid hormone measurements after two and four weeks of treatment with DITPA in normal volunteers.

[4] = Heart failure patients: serum lipid levels; format: in vivo, human; details: for LDL-cholesterol: text baseline 107.3±42.8 mg/dL; for HDL Cholesterol / Triglyceride: serum; for HDL Cholesterol: baseline 32.8 ± 2.8; for Triglyceride: baseline 248.7 ± 40.4
Experimental: DITPA cross-reacted with antibodies for detection of T3, which consequently was not measured. Renal and hepatic function tests also were performed. Patients were randomly assigned in double-blind fashion to receive either DITPA at a dosage of 1.875 mg/kg daily or placebo in two or three divided doses. For the first four days of drug administration patients were monitored on a telemetry unit. Thereafter, weekly electrocardiograms were performed and patients were examined for changes in thyroid or cardiac status or evidence of drug toxicity. At the end of two weeks an echocardiogram was obtained. If there was no clinical evidence of progression of heart failure or development of an arrhythmia the dose of DITPA was increased to 3.75 mg/kg daily. After an additional two weeks of treatment with the higher dosage of the drug patients were readmitted to the hospital and the tests performed in the initial evaluation were repeated. Right heart catheterization was performed after the patient had been fasted overnight; no premedication was given. Pulmonary artery, pulmonary capillary wedge and right heart pressures were measured with a 7 Fr Swan-Ganz catheter introduced into the right femoral vein. Blood pressures were recorded with an automated arm cuff system. After an initial stabilization period of 20 to 30 minutes, the resting hemodynamic measurements were obtained. Thermodilution cardiac output measurements were averaged from five recordings after discarding the highest and lowest values. All blood tests were performed in the Clinical Pathology Laboratory at the Southern Arizona Veterans Administration Health Care System.

[5] = Heart failure patients: echocardiography; format: in vivo, human; details: for Shortening velocity: baseline 0.69 ± 0.15; for Ratio of early to late filling: baseline 1.10 ± 0.21; for LV diastolic dimension: baseline 6.84 ± 0.33; for Fractional shortening: baseline 17.0 ± 3.5; for Isovolumic relaxation time: baseline 92.2 ± 9.5; for LV mass: baseline 495.8 ± 45.9; for LV end-systolic dimension: baseline 5.72 ± 0.41
Experimental: as §1, §2
M-mode, two-dimensional, and Doppler echocardiograms were obtained with an ultrasonographic system equipped with a […] transducer (GE VingMed, Milwaukee, Wis.) according to the recommendation of the American Society of Echocardiography. Ejection fraction was measured by gated radionuclide myocardial imaging.

[6] = normal volunteers, after 2 weeks (1.875 mg/kg/day)
[7] = normal volunteers, after 4 weeks (3.75 mg/kg/day)
[8] = heart failure patients, after four weeks
[9] = heart failure patients, after two weeks
[10] = after 2 weeks (1.875 mg/kg daily)
[11] = after 4 weeks (3.75 mg/kg daily)
[12] = echocardiography, after 2 weeks (1.875 mg/kg daily)
[13] = echocardiography, after 4 weeks (3.75 mg/kg daily)

**Q.** For `O=C(O)CCc1cc(I)c(Oc2ccc(O)cc2)c(I)c1` [DITPA, 3,5-Diiodothyropropionic acid], which “binding to nuclear T3 receptors” value [1] is on record?
**A.** binds

**Q.** What about the “Cardiac Index” value ([2]; after 4 weeks, baseline 2.10 ± 0.14, P 0.04 vs placebo) of the same compound?
**A.** 2.54 ± 0.16 liters/min/m^2

**Q.** And the “Mean Arterial Pressure” value ([2]; after 4 weeks, baseline 96.2 ± 6.7)?
**A.** 92.0 ± 5.7 mm Hg

**Q.** What about the “Systemic Vascular Resistance” value ([2]; after 4 weeks, baseline 3,465 ± 319, P 0.02 vs placebo) of the same compound?
**A.** 2,644 ± 257 dynes x sec x cm^−5

**Q.** And the “Heart Rate” value ([2]; heart failure patients n=9, right heart catheterization, after 4 weeks of treatment, baseline 84.8 ± 4.9)?
**A.** 89.6 ± 5.3

**Q.** And the Right atrial pressure ([2]; right heart catheterization, after 4 weeks, baseline 8.1 ± 1.7)?
**A.** 10.5 ± 1.8 mm Hg

**Q.** And the “Pulmonary artery pressures, Wedge” value ([2]; right heart catheterization, after 4 weeks, baseline 24.0 ± 3.9)?
**A.** 21.8 ± 2.75 mm Hg

**Q.** What about the “Pulmonary artery pressures, Diastolic” value ([2]; right heart catheterization, after 4 weeks, baseline 25.1 ± 4.1) of the same compound?
**A.** 25.4 ± 2.5 mm Hg

**Q.** And the “Pulmonary artery pressures, Mean” value ([2]; right heart catheterization, after 4 weeks, baseline 30.1 ± 5.0)?
**A.** 33.4 ± 3.2 mm Hg

**Q.** And the “Pulmonary artery pressures, Systolic” value ([2]; right heart catheterization, after 4 weeks, baseline 45.0 ± 6.2)?
**A.** 49.1 ± 5.3 mm Hg

**Q.** And the “Cardiac Output” value ([2]; thermodilution, after 4 weeks, baseline 4.50 ± 0.36, P 0.07 vs placebo)?
**A.** 5.30 ± 0.36 L/min

**Q.** What about the Thyrotropin ([3]; normal volunteers n=7, after 2 weeks (1.875 mg/kg/day)) of the same compound?
**A.** 0.69 ± .38 mu/L

**Q.** And the Thyrotropin ([3]; normal volunteers n=7, after 4 weeks (3.75 mg/kg/day))?
**A.** 0.44 ± .29 mu/L

**Q.** What about the “Free T4” value [3, 6] of the same compound?
**A.** 0.95 ± .07 ng/dL

**Q.** What about the “Total T4” value [3, 6] of the same compound?
**A.** 5.76 ± .39 µg/dL

**Q.** What about the rT3 [3, 6] of the same compound?
**A.** 47.41 ± 7.11 ng/dL

**Q.** And the “Free T4” value [3, 7]?
**A.** 1.05 ± .06 ng/dL

**Q.** And the “Total T4” value [3, 7]?
**A.** 5.89 ± .44 µg/dL

**Q.** And the rT3 [3, 7]?
**A.** 69.56 ± 9.93 ng/dL

**Q.** And the “average values for thyrotropin” value ([3]; normal volunteers, after two additional weeks at 3.75 mg/kg, normal range 0.48 to 4.0 μU/ml)?
**A.** 0.44±0.29 μU/ml

**Q.** What about the cholesterol ([4]; heart failure patients n=9, serum, after 2 weeks (1.875 mg/kg daily), baseline 198.9 ± 19.7) of the same compound?
**A.** 160.6 ± 14.3^++ ng/dL

**Q.** And the LDL-cholesterol ([4]; heart failure patients, after 4 weeks)?
**A.** 80.5 ± 13.7 mg/dL

**Q.** What about the “decrease in LDL-cholesterol” value [4, 8] of the same compound?
**A.** 25%

**Q.** And the decrease in cholesterol [4, 8]?
**A.** 24%

**Q.** And the “decrease in serum triglycerides” value ([4]; heart failure patients, after four weeks, P=0.005)?
**A.** 35%

**Q.** What about the cholesterol ([4]; heart failure patients, after four weeks, text baseline 185.8±46.9 mg/dL, P=0.013) of the same compound?
**A.** 140.7 ± 16.2 mg/dL

**Q.** And the “average decrease in LDL-cholesterol” value [4, 9]?
**A.** 17%

**Q.** What about the “average decrease in cholesterol” value [4, 9] of the same compound?
**A.** 14%

**Q.** What about the “decrease in serum triglycerides” value ([4]; heart failure patients, after two weeks, P<0.05) of the same compound?
**A.** 11%

**Q.** And the cholesterol ([4]; heart failure patients, after two weeks, text baseline 185.8±46.9 mg/dL, P<0.05)?
**A.** 160.6 ± 14.3 mg/dL

**Q.** And the LDL-cholesterol ([4]; heart failure patients, at two weeks)?
**A.** 89.4 ± 12.7 mg/dL

**Q.** And the “HDL Cholesterol” value [4, 10]?
**A.** 30.6 ± 2.0 mg/dL

**Q.** And the Triglyceride [4, 10]?
**A.** 203.0 ± 30.4^++ mg/dL

**Q.** What about the “HDL Cholesterol” value [4, 11] of the same compound?
**A.** 31.4 ± 3.1 mg/dL

**Q.** What about the Triglyceride [4, 11] of the same compound?
**A.** 143.7 ± 21.1 mg/dL

**Q.** What about the “patients in whom LDL-cholesterol decreased” value ([4]; treated for 4 weeks) of the same compound?
**A.** 8 of 9

**Q.** What about the Shortening velocity [5, 12] of the same compound?
**A.** 0.55 ± 0.09 circ/sec

**Q.** What about the “Ratio of early to late filling” value [5, 12] of the same compound?
**A.** 0.89 ± 0.17

**Q.** What about the LV diastolic dimension [5, 12] of the same compound?
**A.** 6.83 ± 0.35 cm

**Q.** And the Fractional shortening [5, 12]?
**A.** 13.8 ± 2.4%

**Q.** And the Isovolumic relaxation time ([5]; echocardiography, after 2 weeks (1.875 mg/kg daily), contrast baseline to 2 weeks P = 0.051)?
**A.** 87.5 ± 9.2^++ msec

**Q.** And the LV mass [5, 12]?
**A.** 474.2 ± 38.2 g

**Q.** What about the Shortening velocity [5, 13] of the same compound?
**A.** 0.57 ± 0.10 circ/sec

**Q.** And the “Ratio of early to late filling” value [5, 13]?
**A.** 1.16 ± 0.26

**Q.** And the LV end-systolic dimension [5, 13]?
**A.** 6.01 ± 0.33 cm

**Q.** What about the LV diastolic dimension [5, 13] of the same compound?
**A.** 6.96 ± 0.30 cm

**Q.** What about the Fractional shortening [5, 13] of the same compound?
**A.** 13.8 ± 2.5%

**Q.** What about the Isovolumic relaxation time ([5]; echocardiography, after 4 weeks (3.75 mg/kg daily), ANOVA P 0.045) of the same compound?
**A.** 84.4 ± 8.5 ms

**Q.** And the LV mass [5, 13]?
**A.** 477.9 ± 40.5 g

**Q.** What about the LV end-systolic dimension ([5]; heart failure patients n=9, echocardiography, after 2 weeks (1.875 mg/kg daily)) of the same compound?
**A.** 5.87 ± 0.30 cm
